According to patent publication US8865653B2, “Method of treatment for immunogenic treatment resistant cancer” (Institut Gustave Roussy, priority 2010, dated 2014):

Key:
MCA205 cells [1] = assay: In vivo anti-tumor vaccination with MitoC / Digoxin treated MCA205 cells; set-up: species or system mice; conditions: 20 μM MitoC
CT26 and MCA cells = assay: CRT exposure in single or cotreated cells (MitoC, cardiac glycosides); type: cell-based, mouse
Method: (B) CRT exposure was analysed in the cells that were single or cotreated as indicated by means of CRT surface staining and FACS quantification.

[2] = system: CT26 (siATG5, siATG6, siATG7); assay: Prophylactic immunization with autophagy-deficient dying CT26 cells ± apyrase inhibitor; type: in vivo; conditions: anthracycline-treated cells injected s.c., immunocompetent mice
Method: One million CT26 knock down with small interfering RNA specific for ATG5, ATG6 (Beclin 1 BCN1), or ATG7 or controls siCO were treated with the anthracyclin mitoxanthrone (MTX) for 18 hours, washed and inoculated in one flank of a naïve animal (BALB/C mouse). Positive controls are CT26 treated with MTX and negative controls are CT26 treated with PBS. Ten days later, mice were rechallenged with 3× the minimal tumorigenic dose of live CT26 cells on the opposite flank and monitoring of tumor growth was recorded with a caliper (product of perpendicular diameters). The % of tumor free animals are shown in the graph and the number of animals per group is indicated (n=20). Statistical analyses were performed with Anova test (Fisher's exact method) with significant results at p<0.05.
Idem as in FIG. 40 but the dying cells (siCO or siATG7) were admixed (or not) with apyrase inhibitors (AI) (apyrases are enzymes hydrolyzing ATP in the extracellular milieu) and/or suramine (SUR) or oxidized ATP (OXY), both inhibitors of purinergic receptors at the conventional dosing (previously reported). The % of tumor free animals are shown in the graph and the number of animals per group is indicated (n=20). Statistical analyses were performed with Anova test (Fisher's exact method) with significant results at p<0.05.

[3] = system: CT26 (ATG5 or ATG7 knock down, WT); assay: Chemotherapy of established autophagy-deficient CT26 tumors ± apyrase inhibitor; type: in vivo, mice
Method: One million CT26 knock down with small interfering RNA specific for ATG5 or ATG7 or controls WT were treated with the anthracyclin mitoxanthrone (MTX) at 8 days post-implantation in one flank of a naïve animal (BALB/C mouse). […] Monitoring of tumor growth was recorded with a caliper (product of perpendicular diameters) and is depicted for 5 mice/group. Statistical analyses were performed with Anova test (Fisher's exact method) with significant results at p<0.05.

MCA205 cells [4] = assay: In vivo anti-tumor vaccination with treated MCA205 cells (Example 3); conditions: MCA205, rechallenge with live cells
Method: (F) MCA205 cells have been used for tumor vaccination in vivo. […] The mice have been rechallenged after 6 days with living cells and the tumor growth is depicted in the survival plot (n=10).
Tumor growth was evaluated for at least 50 days.

U2OS cells [5] = assay: Analysis of surface exposed CRT (HaloTag ligand, anti-CRT immune staining)
MCA205 cells [6] = conditions: Martins I et al, Oncogene 2010; cited from earlier work
U2OS cells [7] = type: cell-based
Method: The data is depicted as representative images (A) and (B) normalized Bax-GFP granularity values.
The data represents mean±s.e.m. of quadruplicates from a representative experiment. […] 16 h after treatment, cell death was monitored by simultaneous staining with 3,3 dihexyloxacarbocyanine iodide (DiOC6(3)) and propidium iodide (PI), and the percentage of dying (DiOC6(3)^low PI^−, open bars) and dead (DiOC6(3)^low PI^+, closed bars) cells was determined by cytofluorometry.
Cell death was quantified by cytofluorometric analysis using a FACS Vantage (Becton Dickinson, Mountain View, USA) as described previously (REF). Thus, cells were stained with 40 nM 3,3 dihexyloxacarbocyanine iodide (DiOC6(3); Molecular Probes, Eugene, Oreg., USA) for 30 min at 37° C. and concomitantly with 1 μg/ml propidium iodide (PI; Sigma Aldrich) for 30 min at 37° C. to determine the mitochondrial transmembrane potential. Data were statistically evaluated using CellQuest Pro software (Becton Dickinson, Mountain View, USA).

[8] = system: U2OS cells stably expressing CRT-GFP; assay: CRT-GFP redistribution (granularity, nuclear shape) by automated microscopy; ICCB library screen; type: cell-based, human; conditions: for CRT-GFP granularity / CRT exposure in library screen in the presence vs absence of CDDP: ICCB library, 4 h, with CDDP
Method: The data is depicted as mean±s.e.m. of quadruplicates from a representative experiment. (C) Immunofluorescene was conducted on CRT-GFP expressing cells by means of staining with anti-CRT antibody and subsequent confocal image acquisition. (D) CRT has been cloned in frame n-terminal to a HaloTag® sequence followed by a KDEL ER retention signal. (E) The impermeable HaloTag® ligand forms covalent bonds exclusively with surface exposed HaloTag®-CRT fusion protein, whereas intracellular HaloTag®-CRT remains undetected.
Compounds from the ICCB known bioactive compounds library have been tested for their capacity to induce CRT-exposure. […] The cells were incubated for 4 h and were acquired by means of automated microscopy. The data is depicted as dot plots and representative images (B).
After washing with PBS 4 viewfields per well were acquired by means of a BD pathway 855 automated microscope.

MCA205 [9] = assay: Pro-apoptotic effect on MCA205, DiOC6(3) fluorescence; type: cell-based, mouse; conditions: alone or in combination with anthracyclines (DX, MTX)
Method: (B) The impact of AHR pharmacological inhibitor CH-223191 on pro-apoptotic effect of DX or MTX against MCA205 was measured. A reduction in mitochondrial membrane potential indicated by decreased DiOC6(3) fluorescence was used to show cell apoptosis. The experiment was performed twice with identical results.

MCA205 sarcoma = assay: Anthracycline chemotherapy of established MCA205 sarcoma (intratumoral DX); type: in vivo, mice; conditions: CH-223191 daily i.p. for 4 days from day of DX
Method: 0.8 million MCA205 or CT26 or TS/A tumor cells were inoculated subcutaneously near the thigh into C57Bl/6 (H-2^b) or BALB/c (H-2^d) mice. Anthracyclines-based chemotherapy was performed in MCA205 and CT26 models by intratumoral injecting DX (2 mM, […]) when tumors reached the size 25-40 mm^2. Radiotherapy was performed by local X-ray irradiation (10 Gy, RT250, Phillips) at the unshielded tumor area when TS/A tumor reached the size 40-60 mm^2.

AHR = AHR (Homo sapiens, UniProt P35869); conditions: pure antagonist of AHR; cited from earlier work
AHR, sequence (P35869 11-848, species assumed): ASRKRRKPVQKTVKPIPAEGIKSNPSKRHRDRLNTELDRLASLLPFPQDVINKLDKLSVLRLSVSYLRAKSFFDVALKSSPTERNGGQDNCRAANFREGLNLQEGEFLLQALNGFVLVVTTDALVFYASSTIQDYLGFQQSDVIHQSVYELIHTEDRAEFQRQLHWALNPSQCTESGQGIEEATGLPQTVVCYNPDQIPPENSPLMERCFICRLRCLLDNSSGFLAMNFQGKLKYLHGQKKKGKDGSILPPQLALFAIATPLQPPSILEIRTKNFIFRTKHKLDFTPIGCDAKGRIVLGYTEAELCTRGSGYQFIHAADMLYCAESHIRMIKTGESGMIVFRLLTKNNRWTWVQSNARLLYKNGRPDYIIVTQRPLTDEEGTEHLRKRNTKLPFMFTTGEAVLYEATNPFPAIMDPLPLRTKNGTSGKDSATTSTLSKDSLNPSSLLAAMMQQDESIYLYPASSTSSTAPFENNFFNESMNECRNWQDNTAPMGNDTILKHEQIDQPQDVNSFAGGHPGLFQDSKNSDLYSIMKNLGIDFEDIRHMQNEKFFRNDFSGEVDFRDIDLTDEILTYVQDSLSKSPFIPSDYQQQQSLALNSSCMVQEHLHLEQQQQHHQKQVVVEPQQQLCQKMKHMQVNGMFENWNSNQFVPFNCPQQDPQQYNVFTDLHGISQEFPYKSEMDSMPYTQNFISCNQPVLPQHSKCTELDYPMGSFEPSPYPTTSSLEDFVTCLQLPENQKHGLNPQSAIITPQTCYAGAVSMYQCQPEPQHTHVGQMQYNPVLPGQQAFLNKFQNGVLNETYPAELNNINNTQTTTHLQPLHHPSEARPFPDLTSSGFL

MCA205 [10] = assay: Tumor vaccination with MTX-treated MCA205 and rechallenge; type: in vivo; conditions: s.c. injection of MTX treated MCA205 cells, WT mice (not athymic nude mice)
Method: MCA205 cells were treated with 2 μM MTX for 18 hrs, washed thoroughly and injected into left flank subcutaneously at 0.3 million/mouse. PBS was used as control. Mice were rechallenged with 5×10^4 live MCA205 cells in the right flank 7 days later. Tumor growth was monitored every 2-3 days.

U2OS cells [11] = assay: US Drug library screen: CRT-GFP, HMGB1-GFP, quinacrine; conditions: 1 μM, 4 h / 24 h / 16 h
[12] = system: CT26 overexpressing LC3-GFP; assay: Induction of autophagy in vivo, LC3-GFP redistribution; set-up: species or system mice; conditions: i.v., tumors withdrawn 48 hours post-therapy
Method: After 8 days of tumor implantation (CT26 mouse colon cancer genetically modified to overexpress LC3-GFP in BALB/c immunocompetent mice), oxaliplatin or mitoxanthrone was inoculated systemically (i.v.). Tumors were withdrawn at 48 hours post-therapy and immunofluorescence stainings were performed on frozen sections of tumor tissues to visualize nuclei (in Hoechst blue), and autophagosomes in green (LC3-GFP). […] The lower panel is a graph summarizing enumeration of autophagosomes positive cells in 10 independent sections per tumor and animal (each dot represents one tumor). Statistical analyses were performed with Anova test (Fisher's exact method) with significant results at p<0.05.

[13] = MTX at 8 days post-implantation

Compound: CO[C@@]12[C@H](COC(N)=O)C3=C(C(=O)C(C)=C(N)C3=O)N1C[C@@H]1N[C@@H]12 [MitoC, mitomycin C]
- vaccinating effect, MitoC alone (MCA205 cells [1]): failed to confer any vaccinating effect
- CRT exposure, MitoC by its own (CT26 and MCA cells): incapable of exposing CRT

Compound: CCN(CC)c1ncnc2c1ncn2C1OC(COP(=O)(O)OP(=O)(O)C(Br)(Br)P(=O)(O)O)C(O)C1O [ARL67156, 6-N,N-Diethyl-D-beta-gamma-dibromomethylene adenosine triphosphate]
- immunogenicity of autophagy-deficient dying tumour cells with co-injected apyrase inhibitor [2]: defect in immunogenicity can be restored
- response of autophagy-deficient tumours to anthracycline chemotherapy with intratumoural apyrase inhibitor ([3]; tumours established for 8 days): defect is again overcome

Compound: C/C=C(/C)C(=O)O[C@H]1C(C)=C2[C@H]([C@@H]1OC(=O)CCCCCCC)[C@@](C)(OC(C)=O)C[C@H](OC(=O)CCC)[C@@]1(O)[C@H]2OC(=O)[C@@]1(C)O [THAPS, thapsigargin]
- anticancer immune response, vaccine of dying cells generated with CDDP combined with THAPS (MCA205 cells [4]): elicited an effective anticancer immune response in vivo
- CRT-GFP granularity, CRT-HaloTag exposure, native CRT exposure, THAPS alone (U2OS cells [5]; in the absence of CDDP): comparably inefficient
- CRT-GFP granularity, CRT-HaloTag exposure, native CRT exposure, THAPS with CDDP (U2OS cells [5]; in the presence of CDDP): highly efficient in the presence of CDDP
- immunogenic cell death when combined with cisplatin (MCA205 cells [6]): could induce immunogenic cell death when combined with cisplatin
- cytotoxic effects (U2OS cells [7]): exhibited no major cytotoxic effects
- effect on toxicity of CDDP (U2OS cells [7]): did not increase the toxicity of CDDP
- CRT-GFP granularity / CRT exposure in library screen in the presence vs absence of CDDP [8]: particularly efficient in inducing CRT-GFP granularity in the presence (but not in the absence) of CDDP
- CRT-GFP granularity / CRT exposure in library screen in the presence vs absence of CDDP ([8]; listed as thapsigargin): the sole agent (out of 450 compounds) to induce CRT exposure in the presence of cisplatin but not in the absence of cisplatin

Compound: Cc1ccccc1N=Nc1ccc(NC(=O)c2ccnn2C)c(C)c1 [CH-223191, 2-methyl-2H-pyrazole-3-carboxylic acid (2-methyl-4-o-tolylazo-phenyl)-amide]
- cell-autonomous effects on the tumor cells (MCA205 [9]): no cell-autonomous effects on the tumor cells
- effect on efficacy of DX on established cancers in vivo (MCA205 sarcoma): markedly reduced the efficacy of DX
- concentration up to which no AHR agonist actions (AHR): > 100 µM

Compound: O=C1c2c(O)ccc(O)c2C(=O)c2c(NCCNCCO)ccc(NCCNCCO)c21 [MTX, mitoxantrone]
- protection against rechallenge with live MCA205 tumor cells (MCA205 [10]): could protect WT mice
- rank in screen for exposing CRT and emitting HMGB1 and ATP (U2OS cells [11]): most potent in exposing CRT, and emitting HMGB1 and ATP
- growth of ATG5 and ATG7 deficient tumors under MTX [3, 13]: not controlled by MTX therapy
- growth of CT26 WT tumors under MTX [3, 13]: significantly respond
- redistribution of LC3-GFP in autophagosomes in tumors [12]: Redistribution of LC3-GFP in autophagosomes can be visualized post-therapy
- CRT-GFP granularity (relocation to peripheral granular distribution) ([8]; 1 μM MTX, 150 μM CDDP, 300 μM OXP): only observed after treatment of the cells with MTX or OXP
